Each molecule was assayed against Neprilysin (Homo sapiens, UniProt P08473) (assay: Inhibitory concentration required to inhibit neutral endopeptidase (NEP)).
Chain of Neprilysin (P08473 whole entry): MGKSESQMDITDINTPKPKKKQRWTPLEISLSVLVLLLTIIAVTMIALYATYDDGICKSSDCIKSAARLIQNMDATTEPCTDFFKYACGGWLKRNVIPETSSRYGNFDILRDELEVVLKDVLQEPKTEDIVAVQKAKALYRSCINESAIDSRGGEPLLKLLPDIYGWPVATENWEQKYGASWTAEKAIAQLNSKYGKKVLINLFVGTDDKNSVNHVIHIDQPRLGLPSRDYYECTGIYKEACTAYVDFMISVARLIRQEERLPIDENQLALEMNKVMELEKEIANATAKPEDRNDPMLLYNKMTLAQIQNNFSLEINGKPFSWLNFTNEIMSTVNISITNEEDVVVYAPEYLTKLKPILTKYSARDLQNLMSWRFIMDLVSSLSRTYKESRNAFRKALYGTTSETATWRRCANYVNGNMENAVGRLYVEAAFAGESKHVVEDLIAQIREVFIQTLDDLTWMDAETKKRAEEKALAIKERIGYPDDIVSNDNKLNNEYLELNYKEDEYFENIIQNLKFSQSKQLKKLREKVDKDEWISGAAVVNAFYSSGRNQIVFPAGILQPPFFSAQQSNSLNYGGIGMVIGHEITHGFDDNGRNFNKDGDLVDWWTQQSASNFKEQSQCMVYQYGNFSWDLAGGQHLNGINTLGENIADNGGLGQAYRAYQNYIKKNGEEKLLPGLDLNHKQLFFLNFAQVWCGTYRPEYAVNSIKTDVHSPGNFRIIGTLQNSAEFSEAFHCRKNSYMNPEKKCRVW
Molecule `O=C1N[C@H](C(=O)O)CCCCCCc2ccccc2C[C@H]1CS` has an IC50 of 224 nM.
In the case of `O=C1N[C@H](C(=O)O)CCCCCc2cccc(c2)C[C@@H]1CS`, the IC50 is reported as 8 nM.
Molecule `O=C1N[C@H](C(=O)O)CCCCCCc2cccc(c2)C[C@H]1CS` has an IC50 of 445 nM.
`O=C1N[C@H](C(=O)O)CCCCCc2cccc(c2)C[C@H]1CS` gave an IC50 of 1000 nM.
`O=C1N[C@H](C(=O)O)CCCCCCc2ccccc2C[C@@H]1CS` showed an IC50 of 27 nM.
With `O=C1N[C@H](C(=O)O)CCCCCCc2cccc(c2)C[C@@H]1CS` the IC50 was 4 nM.

What follows are molecules tested against Angiotensin-converting enzyme (Homo sapiens, UniProt P12821) (assay: Inhibitory concentration required to inhibit Angiotensin I converting enzyme (ACE)).
Chain of Angiotensin-converting enzyme (P12821 whole entry): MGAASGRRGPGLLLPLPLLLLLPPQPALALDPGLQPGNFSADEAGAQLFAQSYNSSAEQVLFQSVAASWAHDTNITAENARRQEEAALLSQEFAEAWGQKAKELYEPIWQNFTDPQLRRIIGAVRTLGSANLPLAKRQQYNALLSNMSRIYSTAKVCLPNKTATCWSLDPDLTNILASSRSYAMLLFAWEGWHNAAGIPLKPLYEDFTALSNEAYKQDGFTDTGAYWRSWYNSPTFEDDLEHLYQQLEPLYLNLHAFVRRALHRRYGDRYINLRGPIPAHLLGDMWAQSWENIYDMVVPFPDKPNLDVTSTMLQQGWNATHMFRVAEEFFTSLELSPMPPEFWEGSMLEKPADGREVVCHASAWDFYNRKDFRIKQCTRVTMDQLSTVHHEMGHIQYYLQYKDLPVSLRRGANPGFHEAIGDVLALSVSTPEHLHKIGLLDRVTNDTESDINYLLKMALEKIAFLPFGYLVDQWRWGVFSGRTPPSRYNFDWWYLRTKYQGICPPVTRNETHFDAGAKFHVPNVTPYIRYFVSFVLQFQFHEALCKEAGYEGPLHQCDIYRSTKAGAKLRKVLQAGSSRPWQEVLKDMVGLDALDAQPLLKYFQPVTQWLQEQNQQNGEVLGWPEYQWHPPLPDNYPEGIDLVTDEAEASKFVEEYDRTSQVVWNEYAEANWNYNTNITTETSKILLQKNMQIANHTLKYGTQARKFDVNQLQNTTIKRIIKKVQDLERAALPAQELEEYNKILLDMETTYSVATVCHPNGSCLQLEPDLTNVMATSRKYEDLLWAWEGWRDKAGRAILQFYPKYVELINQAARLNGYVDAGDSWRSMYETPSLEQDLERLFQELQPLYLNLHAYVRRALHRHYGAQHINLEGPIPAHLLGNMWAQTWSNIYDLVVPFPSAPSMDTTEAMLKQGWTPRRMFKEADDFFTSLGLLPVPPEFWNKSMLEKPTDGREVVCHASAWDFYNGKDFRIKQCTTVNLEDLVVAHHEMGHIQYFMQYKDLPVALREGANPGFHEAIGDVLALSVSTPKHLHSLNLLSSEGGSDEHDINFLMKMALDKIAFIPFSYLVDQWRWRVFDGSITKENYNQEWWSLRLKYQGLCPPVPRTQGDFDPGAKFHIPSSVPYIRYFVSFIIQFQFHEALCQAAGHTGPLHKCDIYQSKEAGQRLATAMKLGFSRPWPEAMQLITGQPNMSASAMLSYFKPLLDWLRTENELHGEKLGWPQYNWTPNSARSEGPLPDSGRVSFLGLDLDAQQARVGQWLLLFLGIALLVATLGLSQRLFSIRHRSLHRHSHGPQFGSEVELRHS
Molecule `O=C1N[C@H](C(=O)O)CCCCCCc2ccccc2C[C@H]1CS` has an IC50 greater than 10000 nM.
`O=C1N[C@H](C(=O)O)CCCCCc2cccc(c2)C[C@@H]1CS` showed an IC50 of 4 nM.
`O=C1N[C@H](C(=O)O)CCCCCCc2cccc(c2)C[C@H]1CS` was tested, and the IC50 was 118 nM.
`O=C1N[C@H](C(=O)O)Cc2ccccc2CCCCCC[C@@H]1CS` gave an IC50 of 725 nM.
In the case of `O=C1N[C@@H](C(=O)O)Cc2ccccc2CCCCC[C@@H]1CS`, the IC50 is reported as 6000 nM.
For `C[C@H](CS)C(=O)N1Cc2[nH]c3ccccc3c2CC1C(=O)O` (some centres not stated), the IC50 was 500 nM.
With `O=C1N[C@H](C(=O)O)CCCCCc2cccc(c2)C[C@H]1CS` the IC50 was 1400 nM.
Molecule `O=C1N[C@@H](C(=O)O)Cc2ccccc2CCCCCC[C@@H]1CS` has an IC50 of 470 nM.
For `O=C1N[C@H](C(=O)O)CCCCCCc2ccccc2C[C@@H]1CS`, the IC50 was greater than 10000 nM.
Molecule `O=C1N[C@H](C(=O)O)CCCCc2ccccc2C[C@@H]1CS` has an IC50 greater than 10000 nM.
Molecule `O=C1N[C@H](C(=O)O)CCCCCc2ccccc2C[C@@H]1CS` has an IC50 of 8000 nM.
Work on `O=C1N[C@H](C(=O)O)CCCCc2ccccc2C[C@H]1CS` yielded an IC50 greater than 10000 nM.
For `O=C1N[C@H](C(=O)O)CCCCCc2ccccc2C[C@H]1CS`, the IC50 was 2000 nM.
Molecule `O=C1N[C@H](C(=O)O)CCCCCCc2cccc(c2)C[C@@H]1CS` has an IC50 of 175 nM.
`O=C1N[C@@H](C(=O)O)Cc2ccccc2CCCCCCC[C@@H]1CS` was tested, and the IC50 was greater than 10000 nM.

These molecules were tested against T1, Thermolysin (Bacillus thermoproteolyticus, UniProt P00800) (assay: Inhibitory concentration required to inhibit thermolysin (TLN)).
T1 sequence (P00800 whole entry): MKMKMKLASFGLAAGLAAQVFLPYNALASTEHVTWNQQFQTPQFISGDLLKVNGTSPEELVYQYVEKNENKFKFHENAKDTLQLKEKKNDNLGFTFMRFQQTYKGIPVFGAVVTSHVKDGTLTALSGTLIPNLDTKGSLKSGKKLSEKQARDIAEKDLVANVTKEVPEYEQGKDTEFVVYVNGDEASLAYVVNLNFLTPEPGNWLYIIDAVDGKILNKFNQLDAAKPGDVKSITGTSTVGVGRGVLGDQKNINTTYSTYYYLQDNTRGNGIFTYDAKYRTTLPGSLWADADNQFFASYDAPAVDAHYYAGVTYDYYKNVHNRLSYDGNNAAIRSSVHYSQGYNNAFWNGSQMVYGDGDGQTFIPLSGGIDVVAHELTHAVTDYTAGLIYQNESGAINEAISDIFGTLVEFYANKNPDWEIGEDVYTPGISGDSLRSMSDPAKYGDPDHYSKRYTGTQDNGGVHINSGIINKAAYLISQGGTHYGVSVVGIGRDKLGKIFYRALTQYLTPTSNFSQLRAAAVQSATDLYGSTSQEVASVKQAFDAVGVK
`O=C1N[C@H](C(=O)O)CCCCCCc2ccccc2C[C@H]1CS` was tested, and the IC50 was 41000 nM.
With `O=C1N[C@H](C(=O)O)CCCCCc2cccc(c2)C[C@@H]1CS` the IC50 was 48000 nM.
For `O=C1N[C@H](C(=O)O)CCCCCCc2cccc(c2)C[C@H]1CS`, the IC50 was greater than 10000 nM.
In the case of `O=C1N[C@H](C(=O)O)CCCCCc2cccc(c2)C[C@H]1CS`, the IC50 is reported as greater than 10000 nM.
In the case of `O=C1N[C@H](C(=O)O)CCCCCCc2ccccc2C[C@@H]1CS`, the IC50 is reported as 1800 nM.
With `O=C1N[C@H](C(=O)O)CCCCCCc2cccc(c2)C[C@@H]1CS` the IC50 was 34000 nM.

From ChEMBL document CHEMBL1129939, “Meta-substituted benzofused macrocyclic lactams as zinc metalloprotease inhibitors” (J Med Chem, 1997)
